Measured values from paper PMC5141248 (Biochemistry, 2016).

Target: human CP4H1 (Homo sapiens, UniProt P13674)
Assay: UPLC peptide hydroxylation assay
Format: biochemical
Conditions: turnover; cosubstrate 0.1-10 mM, dansylGlyProProGlyOEt 500 μM, Fe(II) 50 μM, ascorbate 2 mM, pH 7.8, 30 °C

Sequence of human CP4H1 (P13674 18-534): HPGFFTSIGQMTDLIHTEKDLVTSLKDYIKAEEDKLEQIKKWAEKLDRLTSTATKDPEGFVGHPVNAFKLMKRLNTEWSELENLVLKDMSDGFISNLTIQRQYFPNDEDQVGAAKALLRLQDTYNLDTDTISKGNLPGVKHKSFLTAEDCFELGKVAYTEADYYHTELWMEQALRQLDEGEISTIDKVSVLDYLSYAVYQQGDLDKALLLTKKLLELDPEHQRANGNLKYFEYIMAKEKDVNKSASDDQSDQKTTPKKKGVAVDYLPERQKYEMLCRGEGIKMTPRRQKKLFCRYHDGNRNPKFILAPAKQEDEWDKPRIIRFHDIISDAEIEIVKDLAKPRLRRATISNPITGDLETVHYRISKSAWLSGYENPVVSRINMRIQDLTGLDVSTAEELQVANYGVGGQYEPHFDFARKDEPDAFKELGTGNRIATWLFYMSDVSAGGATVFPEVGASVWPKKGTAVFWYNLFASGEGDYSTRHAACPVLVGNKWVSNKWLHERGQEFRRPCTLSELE
Sequence of human CP4H1 (P07237 18-508 partner): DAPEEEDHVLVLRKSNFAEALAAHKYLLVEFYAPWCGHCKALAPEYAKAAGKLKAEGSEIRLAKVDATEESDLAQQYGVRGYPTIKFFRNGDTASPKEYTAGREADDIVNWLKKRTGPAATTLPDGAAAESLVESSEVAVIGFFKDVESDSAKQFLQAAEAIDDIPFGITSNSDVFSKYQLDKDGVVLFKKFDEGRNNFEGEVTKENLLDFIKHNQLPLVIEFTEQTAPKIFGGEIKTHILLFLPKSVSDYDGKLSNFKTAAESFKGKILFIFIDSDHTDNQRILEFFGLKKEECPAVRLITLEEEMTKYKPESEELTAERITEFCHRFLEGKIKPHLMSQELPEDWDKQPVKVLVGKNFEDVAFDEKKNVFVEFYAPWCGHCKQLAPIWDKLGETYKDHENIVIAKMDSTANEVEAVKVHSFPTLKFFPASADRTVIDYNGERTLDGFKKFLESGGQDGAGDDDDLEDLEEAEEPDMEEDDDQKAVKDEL

For `O=C(O)CCC(=O)C(=O)O` [α-ketoglutarate], the “UPLC peptide hydroxylation assay” value was “the reaction was initiated by the addition of α-ketoglutarate”.
